Results: ChEMBL document CHEMBL4507280 (2021)

What was measured:
[1] = biological target: Mitogen-activated protein kinase kinase kinase 6 (Homo sapiens) (UniProt O95382); details: Compound concentration 1000.0 nM
[2] = biological target: Dual specificity protein kinase CLK3 (Homo sapiens) (UniProt P49761); details: Compound concentration 1000.0 nM
[3] = biological target: Casein kinase I isoform delta (Homo sapiens) (UniProt P48730); details: Compound concentration 1000.0 nM
[4] = biological target: Epithelial discoidin domain-containing receptor 1 (Homo sapiens) (UniProt Q08345); details: Compound concentration 1000.0 nM
[5] = biological target: Epidermal growth factor receptor (Homo sapiens) (UniProt P00533); details: Compound concentration 1000.0 nM
[6] = tested on: Epidermal growth factor receptor (Homo sapiens), P00533 [G719C]; details: Compound concentration 1000.0 nM
[7] = biological target: Ephrin type-A receptor 6 (Homo sapiens) (UniProt Q9UF33); details: Compound concentration 1000.0 nM
[8] = biological target: Ephrin type-A receptor 8 (Homo sapiens) (UniProt P29322); details: Compound concentration 1000.0 nM
[9] = biological target: Mitogen-activated protein kinase 3 (Homo sapiens) (UniProt P27361); details: Compound concentration 1000.0 nM
[10] = biological target: Focal adhesion kinase 1 (Homo sapiens) (UniProt Q05397); details: Compound concentration 1000.0 nM
[11] = biological target: Vascular endothelial growth factor receptor 1 (Homo sapiens) (UniProt P17948); details: Compound concentration 1000.0 nM
[12] = tested on: Receptor-type tyrosine-protein kinase FLT3 (Homo sapiens), P36888 [R834Q]; details: Compound concentration 1000.0 nM
[13] = biological target: Tyrosine-protein kinase Fyn (Homo sapiens) (UniProt P06241); details: Compound concentration 1000.0 nM
[14] = biological target: Homeodomain-interacting protein kinase 1 (Homo sapiens) (UniProt Q86Z02); details: Compound concentration 1000.0 nM
[15] = biological target: Inhibitor of nuclear factor kappa-B kinase subunit beta (Homo sapiens) (UniProt O14920); details: Compound concentration 1000.0 nM
[16] = tested on: Mast/stem cell growth factor receptor Kit (Homo sapiens), P10721 [L576P]; details: Compound concentration 1000.0 nM
[17] = biological target: Tyrosine-protein kinase Lck (Homo sapiens) (UniProt P06239); details: Compound concentration 1000.0 nM
[18] = biological target: Mitogen-activated protein kinase kinase kinase 15 (Homo sapiens) (UniProt Q6ZN16); details: Compound concentration 1000.0 nM
[19] = biological target: Mitogen-activated protein kinase kinase kinase 3 (Homo sapiens) (UniProt Q99759); details: Compound concentration 1000.0 nM
[20] = biological target: MAP kinase-activated protein kinase 2 (Homo sapiens) (UniProt P49137); details: Compound concentration 1000.0 nM
[21] = biological target: Hepatocyte growth factor receptor (Homo sapiens) (UniProt P08581); details: Compound concentration 1000.0 nM
[22] = biological target: Mitogen-activated protein kinase kinase kinase 14 (Homo sapiens) (UniProt Q99558); details: Compound concentration 1000.0 nM
[23] = biological target: Cyclin-dependent kinase 18 (Homo sapiens) (UniProt Q07002); details: Compound concentration 1000.0 nM
[24] = biological target: Phosphatidylinositol 3-kinase C2 domain-containing subunit gamma (Homo sapiens) (UniProt O75747); details: Compound concentration 1000.0 nM
[25] = tested on: Phosphatidylinositol 4,5-bisphosphate 3-kinase catalytic subunit alpha isoform (Homo sapiens), P42336 [C420R]; details: Compound concentration 1000.0 nM
[26] = tested on: Phosphatidylinositol 4,5-bisphosphate 3-kinase catalytic subunit alpha isoform (Homo sapiens), P42336 [E542K]; details: Compound concentration 1000.0 nM
[27] = tested on: Phosphatidylinositol 4,5-bisphosphate 3-kinase catalytic subunit alpha isoform (Homo sapiens), P42336 [E545K]; details: Compound concentration 1000.0 nM
[28] = tested on: Phosphatidylinositol 4,5-bisphosphate 3-kinase catalytic subunit alpha isoform (Homo sapiens), P42336 [H1047L]; details: Compound concentration 1000.0 nM
[29] = biological target: Serine/threonine-protein kinase pim-2 (Homo sapiens) (UniProt Q9P1W9); details: Compound concentration 1000.0 nM
[30] = biological target: cAMP-dependent protein kinase catalytic subunit alpha (Homo sapiens) (UniProt P17612); details: Compound concentration 1000.0 nM
[31] = biological target: Serine/threonine-protein kinase RIO2 (Homo sapiens) (UniProt Q9BVS4); details: Compound concentration 1000.0 nM
[32] = biological target: Receptor-interacting serine/threonine-protein kinase 1 (Homo sapiens) (UniProt Q13546); details: Compound concentration 1000.0 nM
[33] = biological target: Ribosomal protein S6 kinase alpha-3 (Homo sapiens) (UniProt P51812); details: Compound concentration 1000.0 nM
[34] = biological target: Ribosomal protein S6 kinase alpha-2 (Homo sapiens) (UniProt Q15349); details: Compound concentration 1000.0 nM
[35] = biological target: Serine/threonine-protein kinase Sgk3 (Homo sapiens) (UniProt Q96BR1); details: Compound concentration 1000.0 nM
[36] = biological target: Tyrosine-protein kinase receptor Tie-1 (Homo sapiens) (UniProt P35590); details: Compound concentration 1000.0 nM
[37] = biological target: Angiopoietin-1 receptor (Homo sapiens) (UniProt Q02763); details: Compound concentration 1000.0 nM
[38] = biological target: Tyrosine-protein kinase TXK (Homo sapiens) (UniProt P42681); details: Compound concentration 1000.0 nM
[39] = biological target: Phosphatidylinositol 3-kinase catalytic subunit type 3 (Homo sapiens) (UniProt Q8NEB9); details: Compound concentration 1000.0 nM
[40] = biological target: Serine/threonine-protein kinase WNK2 (Homo sapiens) (UniProt Q9Y3S1); details: Compound concentration 1000.0 nM
[41] = biological target: 5-hydroxytryptamine receptor 1A (Homo sapiens) (UniProt P08908); details: Compound concentration 10.0 uM
[42] = biological target: Mu-type opioid receptor (Homo sapiens) (UniProt P35372); details: Compound concentration 10.0 uM
[43] = biological target: Histamine H1 receptor (Homo sapiens) (UniProt P35367); details: Compound concentration 10.0 uM
Histamine H4 receptor = Histamine H4 receptor (Homo sapiens, UniProt Q9H3N8); details: Compound concentration 10.0 uM
[44] = biological target: Beta-3 adrenergic receptor (Homo sapiens) (UniProt P13945); details: Compound concentration 10.0 uM

Epithelial discoidin domain-containing receptor 1 (Homo sapiens), sequence (Q08345 whole entry, the tested form may be a part): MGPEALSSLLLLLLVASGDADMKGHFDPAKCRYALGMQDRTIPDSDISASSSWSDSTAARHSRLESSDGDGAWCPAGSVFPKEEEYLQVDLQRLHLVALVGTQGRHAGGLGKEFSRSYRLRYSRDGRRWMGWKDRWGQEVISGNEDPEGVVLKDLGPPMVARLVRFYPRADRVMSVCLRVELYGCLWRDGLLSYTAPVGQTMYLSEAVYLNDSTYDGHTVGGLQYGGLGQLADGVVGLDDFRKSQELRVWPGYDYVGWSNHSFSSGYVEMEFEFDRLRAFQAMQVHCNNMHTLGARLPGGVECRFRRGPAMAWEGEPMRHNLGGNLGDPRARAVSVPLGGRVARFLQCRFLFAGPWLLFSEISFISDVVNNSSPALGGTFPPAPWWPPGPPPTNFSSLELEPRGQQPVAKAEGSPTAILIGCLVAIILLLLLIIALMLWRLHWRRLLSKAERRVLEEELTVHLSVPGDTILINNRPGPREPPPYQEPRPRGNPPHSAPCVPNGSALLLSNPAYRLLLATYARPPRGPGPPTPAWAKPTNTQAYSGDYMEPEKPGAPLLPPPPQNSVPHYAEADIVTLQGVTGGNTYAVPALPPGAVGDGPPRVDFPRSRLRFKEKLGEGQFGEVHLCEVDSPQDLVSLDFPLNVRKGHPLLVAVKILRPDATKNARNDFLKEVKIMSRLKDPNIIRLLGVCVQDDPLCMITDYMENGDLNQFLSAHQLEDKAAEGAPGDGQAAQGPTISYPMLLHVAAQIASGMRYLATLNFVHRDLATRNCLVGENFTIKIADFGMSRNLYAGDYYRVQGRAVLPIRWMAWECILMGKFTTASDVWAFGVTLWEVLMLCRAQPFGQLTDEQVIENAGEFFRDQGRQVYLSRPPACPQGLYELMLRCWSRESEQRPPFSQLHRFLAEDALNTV
Vascular endothelial growth factor receptor 1 (Homo sapiens), sequence (P17948 whole entry): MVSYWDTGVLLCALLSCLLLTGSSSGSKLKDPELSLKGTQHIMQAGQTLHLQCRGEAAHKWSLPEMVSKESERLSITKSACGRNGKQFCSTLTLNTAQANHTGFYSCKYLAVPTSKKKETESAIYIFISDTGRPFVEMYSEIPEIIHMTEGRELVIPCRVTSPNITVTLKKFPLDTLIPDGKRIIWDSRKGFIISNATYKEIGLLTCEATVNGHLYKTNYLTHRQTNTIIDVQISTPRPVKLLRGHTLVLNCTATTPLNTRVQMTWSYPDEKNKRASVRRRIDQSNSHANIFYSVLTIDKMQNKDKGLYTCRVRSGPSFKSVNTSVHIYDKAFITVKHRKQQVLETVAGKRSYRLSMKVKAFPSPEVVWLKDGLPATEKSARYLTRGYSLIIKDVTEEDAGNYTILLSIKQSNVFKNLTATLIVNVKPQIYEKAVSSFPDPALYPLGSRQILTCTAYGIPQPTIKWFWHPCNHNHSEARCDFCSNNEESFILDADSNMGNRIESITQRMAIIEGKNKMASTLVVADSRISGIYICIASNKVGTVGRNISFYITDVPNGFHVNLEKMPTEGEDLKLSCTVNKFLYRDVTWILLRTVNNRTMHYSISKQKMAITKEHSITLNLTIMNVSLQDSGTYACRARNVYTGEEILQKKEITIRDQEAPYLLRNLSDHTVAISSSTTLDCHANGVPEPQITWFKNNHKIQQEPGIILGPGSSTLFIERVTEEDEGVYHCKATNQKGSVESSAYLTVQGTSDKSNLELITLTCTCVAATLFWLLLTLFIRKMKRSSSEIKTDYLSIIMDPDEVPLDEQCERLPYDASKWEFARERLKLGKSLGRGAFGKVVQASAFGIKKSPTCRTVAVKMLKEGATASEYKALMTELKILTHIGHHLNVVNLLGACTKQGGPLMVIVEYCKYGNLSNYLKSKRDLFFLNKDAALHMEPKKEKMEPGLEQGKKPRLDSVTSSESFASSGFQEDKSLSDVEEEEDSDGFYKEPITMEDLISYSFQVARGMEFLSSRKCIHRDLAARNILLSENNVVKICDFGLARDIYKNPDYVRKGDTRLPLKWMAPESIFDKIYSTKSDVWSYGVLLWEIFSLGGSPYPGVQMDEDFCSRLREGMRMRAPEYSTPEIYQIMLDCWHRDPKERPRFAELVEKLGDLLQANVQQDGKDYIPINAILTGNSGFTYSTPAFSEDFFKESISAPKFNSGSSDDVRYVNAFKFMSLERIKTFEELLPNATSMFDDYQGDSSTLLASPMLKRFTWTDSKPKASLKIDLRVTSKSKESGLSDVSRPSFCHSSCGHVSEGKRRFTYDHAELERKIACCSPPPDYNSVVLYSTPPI
MAP kinase-activated protein kinase 2 (Homo sapiens), sequence (P49137 whole entry, looked up): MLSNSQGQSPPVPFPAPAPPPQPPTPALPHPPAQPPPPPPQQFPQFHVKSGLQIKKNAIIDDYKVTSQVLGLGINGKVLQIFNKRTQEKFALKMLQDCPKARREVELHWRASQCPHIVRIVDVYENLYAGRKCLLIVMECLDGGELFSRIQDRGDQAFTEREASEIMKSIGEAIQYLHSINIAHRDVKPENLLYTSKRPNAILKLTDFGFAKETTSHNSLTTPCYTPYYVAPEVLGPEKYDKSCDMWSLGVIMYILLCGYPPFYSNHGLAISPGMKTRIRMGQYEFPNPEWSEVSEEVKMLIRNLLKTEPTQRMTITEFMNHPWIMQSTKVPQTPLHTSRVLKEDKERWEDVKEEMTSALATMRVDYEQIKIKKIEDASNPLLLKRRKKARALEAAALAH
Mitogen-activated protein kinase 3 (Homo sapiens), sequence (P27361 whole entry): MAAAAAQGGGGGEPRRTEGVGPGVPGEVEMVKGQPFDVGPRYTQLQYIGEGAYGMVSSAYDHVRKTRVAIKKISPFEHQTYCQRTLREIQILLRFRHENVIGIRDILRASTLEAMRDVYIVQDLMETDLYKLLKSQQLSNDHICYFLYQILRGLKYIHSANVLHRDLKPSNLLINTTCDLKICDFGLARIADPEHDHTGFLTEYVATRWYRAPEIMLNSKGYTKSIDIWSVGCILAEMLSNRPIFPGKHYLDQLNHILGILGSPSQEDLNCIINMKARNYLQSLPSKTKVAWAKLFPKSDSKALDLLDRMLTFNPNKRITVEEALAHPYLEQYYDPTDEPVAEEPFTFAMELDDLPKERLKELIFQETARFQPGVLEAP
Serine/threonine-protein kinase Sgk3 (Homo sapiens), sequence (Q96BR1 whole entry): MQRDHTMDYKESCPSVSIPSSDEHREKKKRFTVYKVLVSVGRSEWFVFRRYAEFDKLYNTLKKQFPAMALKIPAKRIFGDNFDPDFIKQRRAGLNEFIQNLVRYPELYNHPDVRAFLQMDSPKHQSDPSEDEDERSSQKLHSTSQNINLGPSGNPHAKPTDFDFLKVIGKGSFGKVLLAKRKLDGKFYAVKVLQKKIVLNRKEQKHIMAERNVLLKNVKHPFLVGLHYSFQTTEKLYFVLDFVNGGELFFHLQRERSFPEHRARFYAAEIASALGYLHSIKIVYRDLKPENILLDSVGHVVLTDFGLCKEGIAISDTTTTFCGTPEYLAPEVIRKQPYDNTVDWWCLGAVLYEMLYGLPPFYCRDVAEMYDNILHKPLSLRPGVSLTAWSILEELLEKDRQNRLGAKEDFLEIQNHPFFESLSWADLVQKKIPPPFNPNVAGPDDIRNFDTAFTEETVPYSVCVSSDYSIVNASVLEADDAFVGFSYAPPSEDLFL
Tyrosine-protein kinase Fyn (Homo sapiens), sequence (P06241 2-537 limits assumed): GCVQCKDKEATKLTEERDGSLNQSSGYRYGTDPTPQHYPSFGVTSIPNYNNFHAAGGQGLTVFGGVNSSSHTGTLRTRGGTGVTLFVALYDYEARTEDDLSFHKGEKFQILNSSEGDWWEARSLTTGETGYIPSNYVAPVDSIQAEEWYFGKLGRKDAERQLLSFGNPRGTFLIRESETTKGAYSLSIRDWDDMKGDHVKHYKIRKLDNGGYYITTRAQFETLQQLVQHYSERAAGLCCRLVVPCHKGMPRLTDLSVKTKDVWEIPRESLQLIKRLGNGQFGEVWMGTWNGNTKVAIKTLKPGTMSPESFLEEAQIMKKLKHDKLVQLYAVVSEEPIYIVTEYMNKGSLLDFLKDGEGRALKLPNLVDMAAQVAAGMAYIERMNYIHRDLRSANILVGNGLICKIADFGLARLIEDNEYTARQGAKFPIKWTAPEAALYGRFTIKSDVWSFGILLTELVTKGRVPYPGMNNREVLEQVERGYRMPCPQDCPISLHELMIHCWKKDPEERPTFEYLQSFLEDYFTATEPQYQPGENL
Cyclin-dependent kinase 18 (Homo sapiens), sequence (Q07002 whole entry, the tested form may be a part): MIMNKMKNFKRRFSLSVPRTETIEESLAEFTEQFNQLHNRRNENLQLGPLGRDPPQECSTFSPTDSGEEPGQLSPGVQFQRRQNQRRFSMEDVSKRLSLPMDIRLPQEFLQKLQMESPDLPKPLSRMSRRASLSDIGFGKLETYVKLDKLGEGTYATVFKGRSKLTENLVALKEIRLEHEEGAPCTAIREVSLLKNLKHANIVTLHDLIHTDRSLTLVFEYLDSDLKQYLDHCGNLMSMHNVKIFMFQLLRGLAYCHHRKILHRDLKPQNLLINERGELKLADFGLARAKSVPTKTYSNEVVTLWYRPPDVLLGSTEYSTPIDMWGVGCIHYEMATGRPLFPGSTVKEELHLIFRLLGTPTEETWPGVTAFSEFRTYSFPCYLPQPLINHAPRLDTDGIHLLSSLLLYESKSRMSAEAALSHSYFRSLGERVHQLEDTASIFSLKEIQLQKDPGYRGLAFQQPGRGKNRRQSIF
Serine/threonine-protein kinase pim-2 (Homo sapiens), sequence (Q9P1W9 whole entry, looked up): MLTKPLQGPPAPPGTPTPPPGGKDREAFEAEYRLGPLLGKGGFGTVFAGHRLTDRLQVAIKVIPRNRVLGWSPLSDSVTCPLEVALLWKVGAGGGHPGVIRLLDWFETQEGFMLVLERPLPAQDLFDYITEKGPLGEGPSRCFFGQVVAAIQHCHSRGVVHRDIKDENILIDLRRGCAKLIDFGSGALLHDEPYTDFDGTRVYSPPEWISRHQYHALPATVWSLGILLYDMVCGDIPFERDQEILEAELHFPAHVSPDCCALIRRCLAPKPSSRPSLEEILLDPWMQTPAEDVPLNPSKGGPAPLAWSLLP

## CCC(=O)N[C@@H]1CC[C@H](C(=O)N(C)c2ccc(-c3nc4ccccc4o3)cc2)C1 [BI 99990]
[1]
  residual activity: 75%
[2]
  residual activity: 100%
[3]
  residual activity: 100%
[4]
  residual activity: 100%
[5]
  residual activity: 100%
[6]
  residual activity: 100%
[7]
  residual activity: 100%
[8]
  residual activity: 100%
[9]
  residual activity: 100%
[10]
  residual activity: 100%
[11]
  residual activity: 100%
[12]
  residual activity: 100%
[13]
  residual activity: 85%
[14]
  residual activity: 87%
[15]
  residual activity: 100%
[16]
  residual activity: 100%
[17]
  residual activity: 100%
[18]
  residual activity: 100%
[19]
  residual activity: 96%
[20]
  residual activity: 87%
[21]
  residual activity: 100%
[22]
  residual activity: 100%
[23]
  residual activity: 95%
[24]
  residual activity: 57%
[25]
  residual activity: 70%
[26]
  residual activity: 84%
[27]
  residual activity: 75%
[28]
  residual activity: 97%
[29]
  residual activity: 100%
[30]
  residual activity: 100%
[31]
  residual activity: 100%
[32]
  residual activity: 100%
[33]
  residual activity: 91%
[34]
  residual activity: 86%
[35]
  residual activity: 100%
[36]
  residual activity: 95%
[37]
  residual activity: 82%
[38]
  residual activity: 77%
[39]
  residual activity: 100%
[40]
  residual activity: 92%
[41]
  inhibition: 8.28%
[42]
  inhibition: 14.1%
[43]
  inhibition: 18.6%
Histamine H4 receptor
  inhibition: 55.3%
[44]
  inhibition: -2.82%

## CCC(=O)N[C@H]1CC[C@@H](C(=O)N(C)c2ccc(-c3nc4ccccc4o3)cc2)C1 [BI 99179]
[1]
  residual activity: 76%
[2]
  residual activity: 91%
[3]
  residual activity: 96%
[4]
  residual activity: 100%
[5]
  residual activity: 100%
[6]
  residual activity: 100%
[7]
  residual activity: 76%
[8]
  residual activity: 96%
[9]
  residual activity: 100%
[10]
  residual activity: 100%
[11]
  residual activity: 98%
[12]
  residual activity: 100%
[13]
  residual activity: 100%
[14]
  residual activity: 80%
[15]
  residual activity: 90%
[16]
  residual activity: 61%
[17]
  residual activity: 89%
[18]
  residual activity: 100%
[19]
  residual activity: 89%
[20]
  residual activity: 97%
[21]
  residual activity: 100%
[22]
  residual activity: 92%
[23]
  residual activity: 100%
[24]
  residual activity: 86%
[25]
  residual activity: 92%
[26]
  residual activity: 77%
[27]
  residual activity: 74%
[28]
  residual activity: 78%
[29]
  residual activity: 100%
[30]
  residual activity: 100%
[31]
  residual activity: 84%
[32]
  residual activity: 100%
[33]
  residual activity: 88%
[34]
  residual activity: 99%
[35]
  residual activity: 66%
[36]
  residual activity: 100%
[37]
  residual activity: 85%
[38]
  residual activity: 100%
[39]
  residual activity: 89%
[40]
  residual activity: 74%
[41]
  inhibition: 19.5%
[42]
  inhibition: 10.3%
[43]
  inhibition: 20.9%
Histamine H4 receptor
  inhibition: 39.3%
[44]
  inhibition: 34.9%
